Reference: the supplement of paper PMC8882468
± gives the standard deviation of the averaged measurements.

Tested on: HCI-008 (organoid from a HER2-enriched breast cancer xenograft)
Test: CTG-3D luminescence at 96 h relative to day-0 seeding control (ratio to day 0); higher = more growth / less cytotoxicity; PDxO 3D drug screen, 96 h, CTG-3D normalised to day-0 seeding control.
Details: 1 µM; days in culture: 228

Row | SMILES | CTG-3D luminescence at 96 h
1 | C[C@@H]1COCCN1c1cc(C2([S@](C)(=N)=O)CC2)nc(-c2cc[nH]c3nccc2-3)n1 [ceralasertib] | 1.36 ± 0.054
2 | CCN1CCN(Cc2ccc(Nc3ncc(F)c(-c4cc(F)c5nc(C)n(C(C)C)c5c4)n3)nc2)CC1 [abemaciclib] | 1.86 ± 0.65
3 | NC1(C(=O)N[C@@H](CCO)c2ccc(Cl)cc2)CCN(c2nc[nH]c3nccc2-3)CC1 [capivasertib] | 0.441 ± 0.091
4 | CC(C)n1nc(-c2ccc3oc(N)nc3c2)c2c(N)ncnc21 [sapanisertib] | 0.33 ± 0.05
5 | O=C(c1ccc(F)c(F)c1Nc1ccc(I)cc1F)N1CC(O)([C@@H]2CCCCN2)C1 [cobimetinib] | 1.11 ± 0.17
6 | C[C@H](NC(=O)CCC(F)(F)F)C(=O)N[C@@H]1C(=O)N(CCO)c2ncccc2-c2ccccc21 [crenigacestat] | 1.73 ± 0.47
7 | Cc1cc(Nc2ncc(Cl)c(Nc3ccccc3S(=O)(=O)C(C)C)n2)c(OC(C)C)cc1C1CCNCC1 [ceritinib] | 1.15 ± 0.37
8 | CS(=O)(=O)c1ccc(C(=O)Nc2ccc(Cl)c(-c3ccccn3)c2)c(Cl)c1 [vismodegib] | 1.46 ± 0.24
9 | NC(=O)c1cccc2cn(-c3ccc([C@@H]4CCCNC4)cc3)nc12 [niraparib] | 1.34 ± 0.099

Same assay, conditions: 1 µM; days in culture: 244

Row | SMILES | CTG-3D luminescence at 96 h
10 | C[C@@H]1COCCN1c1cc(C2([S@](C)(=N)=O)CC2)nc(-c2cc[nH]c3nccc2-3)n1 [ceralasertib] | 1.26
11 | CCN1CCN(Cc2ccc(Nc3ncc(F)c(-c4cc(F)c5nc(C)n(C(C)C)c5c4)n3)nc2)CC1 [abemaciclib] | 2.12
12 | NC1(C(=O)N[C@@H](CCO)c2ccc(Cl)cc2)CCN(c2nc[nH]c3nccc2-3)CC1 [capivasertib] | 0.546
13 | CC(C)n1nc(-c2ccc3oc(N)nc3c2)c2c(N)ncnc21 [sapanisertib] | 0.511
14 | O=C(c1ccc(F)c(F)c1Nc1ccc(I)cc1F)N1CC(O)([C@@H]2CCCCN2)C1 [cobimetinib] | 1.1
15 | C[C@H](NC(=O)CCC(F)(F)F)C(=O)N[C@@H]1C(=O)N(CCO)c2ncccc2-c2ccccc21 [crenigacestat] | 1.38
16 | Cc1cc(Nc2ncc(Cl)c(Nc3ccccc3S(=O)(=O)C(C)C)n2)c(OC(C)C)cc1C1CCNCC1 [ceritinib] | 1.47
17 | CS(=O)(=O)c1ccc(C(=O)Nc2ccc(Cl)c(-c3ccccn3)c2)c(Cl)c1 [vismodegib] | 2.19
18 | NC(=O)c1cccc2cn(-c3ccc([C@@H]4CCCNC4)cc3)nc12 [niraparib] | 1.77

Same assay, conditions: 10 µM; days in culture: 228

Row | SMILES | CTG-3D luminescence at 96 h
19 | C[C@@H]1COCCN1c1cc(C2([S@](C)(=N)=O)CC2)nc(-c2cc[nH]c3nccc2-3)n1 [ceralasertib] | 0.531 ± 0.11
20 | CCN1CCN(Cc2ccc(Nc3ncc(F)c(-c4cc(F)c5nc(C)n(C(C)C)c5c4)n3)nc2)CC1 [abemaciclib] | 1.53 ± 0.075
21 | NC1(C(=O)N[C@@H](CCO)c2ccc(Cl)cc2)CCN(c2nc[nH]c3nccc2-3)CC1 [capivasertib] | 0.222 ± 0.31
22 | CC(C)n1nc(-c2ccc3oc(N)nc3c2)c2c(N)ncnc21 [sapanisertib] | 0.185 ± 0.037
23 | O=C(c1ccc(F)c(F)c1Nc1ccc(I)cc1F)N1CC(O)([C@@H]2CCCCN2)C1 [cobimetinib] | 1 ± 0.69
24 | C[C@H](NC(=O)CCC(F)(F)F)C(=O)N[C@@H]1C(=O)N(CCO)c2ncccc2-c2ccccc21 [crenigacestat] | 1.7 ± 0.035
25 | Cc1cc(Nc2ncc(Cl)c(Nc3ccccc3S(=O)(=O)C(C)C)n2)c(OC(C)C)cc1C1CCNCC1 [ceritinib] | -0.138 ± 0.21
26 | CS(=O)(=O)c1ccc(C(=O)Nc2ccc(Cl)c(-c3ccccn3)c2)c(Cl)c1 [vismodegib] | 1.46 ± 0.14
27 | NC(=O)c1cccc2cn(-c3ccc([C@@H]4CCCNC4)cc3)nc12 [niraparib] | 0.828 ± 0.26

Same assay, conditions: 10 µM; days in culture: 244

Row | SMILES | CTG-3D luminescence at 96 h
28 | C[C@@H]1COCCN1c1cc(C2([S@](C)(=N)=O)CC2)nc(-c2cc[nH]c3nccc2-3)n1 [ceralasertib] | 0.71
29 | CCN1CCN(Cc2ccc(Nc3ncc(F)c(-c4cc(F)c5nc(C)n(C(C)C)c5c4)n3)nc2)CC1 [abemaciclib] | 2.51
30 | NC1(C(=O)N[C@@H](CCO)c2ccc(Cl)cc2)CCN(c2nc[nH]c3nccc2-3)CC1 [capivasertib] | 0.415
31 | CC(C)n1nc(-c2ccc3oc(N)nc3c2)c2c(N)ncnc21 [sapanisertib] | 0.267
32 | O=C(c1ccc(F)c(F)c1Nc1ccc(I)cc1F)N1CC(O)([C@@H]2CCCCN2)C1 [cobimetinib] | 1.08
33 | C[C@H](NC(=O)CCC(F)(F)F)C(=O)N[C@@H]1C(=O)N(CCO)c2ncccc2-c2ccccc21 [crenigacestat] | 1.57
34 | Cc1cc(Nc2ncc(Cl)c(Nc3ccccc3S(=O)(=O)C(C)C)n2)c(OC(C)C)cc1C1CCNCC1 [ceritinib] | 0.0065
35 | CS(=O)(=O)c1ccc(C(=O)Nc2ccc(Cl)c(-c3ccccn3)c2)c(Cl)c1 [vismodegib] | 2.07
36 | NC(=O)c1cccc2cn(-c3ccc([C@@H]4CCCNC4)cc3)nc12 [niraparib] | 1.17

Same assay, conditions: 100 µM; days in culture: 228

Row | SMILES | CTG-3D luminescence at 96 h
37 | C[C@@H]1COCCN1c1cc(C2([S@](C)(=N)=O)CC2)nc(-c2cc[nH]c3nccc2-3)n1 [ceralasertib] | 0.212 ± 0.0027
38 | CCN1CCN(Cc2ccc(Nc3ncc(F)c(-c4cc(F)c5nc(C)n(C(C)C)c5c4)n3)nc2)CC1 [abemaciclib] | 0.0137 ± 0.0018
39 | NC1(C(=O)N[C@@H](CCO)c2ccc(Cl)cc2)CCN(c2nc[nH]c3nccc2-3)CC1 [capivasertib] | 0.155 ± 0.24
40 | CC(C)n1nc(-c2ccc3oc(N)nc3c2)c2c(N)ncnc21 [sapanisertib] | 0.0307 ± 0.0054
41 | O=C(c1ccc(F)c(F)c1Nc1ccc(I)cc1F)N1CC(O)([C@@H]2CCCCN2)C1 [cobimetinib] | -0.00126 ± 0.003
42 | C[C@H](NC(=O)CCC(F)(F)F)C(=O)N[C@@H]1C(=O)N(CCO)c2ncccc2-c2ccccc21 [crenigacestat] | 1.65 ± 0.22
43 | Cc1cc(Nc2ncc(Cl)c(Nc3ccccc3S(=O)(=O)C(C)C)n2)c(OC(C)C)cc1C1CCNCC1 [ceritinib] | -0.142 ± 0.2
44 | CS(=O)(=O)c1ccc(C(=O)Nc2ccc(Cl)c(-c3ccccn3)c2)c(Cl)c1 [vismodegib] | 0.622 ± 0.23
45 | NC(=O)c1cccc2cn(-c3ccc([C@@H]4CCCNC4)cc3)nc12 [niraparib] | 0.00065 ± 0.00088

Same assay, conditions: 100 µM; days in culture: 244

Row | SMILES | CTG-3D luminescence at 96 h
46 | C[C@@H]1COCCN1c1cc(C2([S@](C)(=N)=O)CC2)nc(-c2cc[nH]c3nccc2-3)n1 [ceralasertib] | 0.334
47 | CCN1CCN(Cc2ccc(Nc3ncc(F)c(-c4cc(F)c5nc(C)n(C(C)C)c5c4)n3)nc2)CC1 [abemaciclib] | 0.0231
48 | NC1(C(=O)N[C@@H](CCO)c2ccc(Cl)cc2)CCN(c2nc[nH]c3nccc2-3)CC1 [capivasertib] | 0.392
49 | CC(C)n1nc(-c2ccc3oc(N)nc3c2)c2c(N)ncnc21 [sapanisertib] | 0.0296
50 | O=C(c1ccc(F)c(F)c1Nc1ccc(I)cc1F)N1CC(O)([C@@H]2CCCCN2)C1 [cobimetinib] | 0.000182
51 | C[C@H](NC(=O)CCC(F)(F)F)C(=O)N[C@@H]1C(=O)N(CCO)c2ncccc2-c2ccccc21 [crenigacestat] | 1.38
52 | Cc1cc(Nc2ncc(Cl)c(Nc3ccccc3S(=O)(=O)C(C)C)n2)c(OC(C)C)cc1C1CCNCC1 [ceritinib] | -0.00443
53 | CS(=O)(=O)c1ccc(C(=O)Nc2ccc(Cl)c(-c3ccccn3)c2)c(Cl)c1 [vismodegib] | 1.01
54 | NC(=O)c1cccc2cn(-c3ccc([C@@H]4CCCNC4)cc3)nc12 [niraparib] | -0.000168

Same assay, conditions: 625 fM; days in culture: 228

Row | SMILES | CTG-3D luminescence at 96 h
55 | C[C@@H]1COCCN1c1cc(C2([S@](C)(=N)=O)CC2)nc(-c2cc[nH]c3nccc2-3)n1 [ceralasertib] | 1.72 ± 0.17
56 | CCN1CCN(Cc2ccc(Nc3ncc(F)c(-c4cc(F)c5nc(C)n(C(C)C)c5c4)n3)nc2)CC1 [abemaciclib] | 1.79 ± 0.36
57 | NC1(C(=O)N[C@@H](CCO)c2ccc(Cl)cc2)CCN(c2nc[nH]c3nccc2-3)CC1 [capivasertib] | 1.76 ± 0.22
58 | CC(C)n1nc(-c2ccc3oc(N)nc3c2)c2c(N)ncnc21 [sapanisertib] | 1.78 ± 0.27
59 | O=C(c1ccc(F)c(F)c1Nc1ccc(I)cc1F)N1CC(O)([C@@H]2CCCCN2)C1 [cobimetinib] | 1.7 ± 0.47
60 | C[C@H](NC(=O)CCC(F)(F)F)C(=O)N[C@@H]1C(=O)N(CCO)c2ncccc2-c2ccccc21 [crenigacestat] | 1.9 ± 0.12
61 | Cc1cc(Nc2ncc(Cl)c(Nc3ccccc3S(=O)(=O)C(C)C)n2)c(OC(C)C)cc1C1CCNCC1 [ceritinib] | 1.59 ± 0.23
62 | CS(=O)(=O)c1ccc(C(=O)Nc2ccc(Cl)c(-c3ccccn3)c2)c(Cl)c1 [vismodegib] | 1.79 ± 0.4
63 | NC(=O)c1cccc2cn(-c3ccc([C@@H]4CCCNC4)cc3)nc12 [niraparib] | 1.72 ± 0.14

Same assay, conditions: 625 fM; days in culture: 244

Row | SMILES | CTG-3D luminescence at 96 h
64 | C[C@@H]1COCCN1c1cc(C2([S@](C)(=N)=O)CC2)nc(-c2cc[nH]c3nccc2-3)n1 [ceralasertib] | 2.35
65 | CCN1CCN(Cc2ccc(Nc3ncc(F)c(-c4cc(F)c5nc(C)n(C(C)C)c5c4)n3)nc2)CC1 [abemaciclib] | 2.52
66 | NC1(C(=O)N[C@@H](CCO)c2ccc(Cl)cc2)CCN(c2nc[nH]c3nccc2-3)CC1 [capivasertib] | 2.08
67 | CC(C)n1nc(-c2ccc3oc(N)nc3c2)c2c(N)ncnc21 [sapanisertib] | 2.11
68 | O=C(c1ccc(F)c(F)c1Nc1ccc(I)cc1F)N1CC(O)([C@@H]2CCCCN2)C1 [cobimetinib] | 2.25
69 | C[C@H](NC(=O)CCC(F)(F)F)C(=O)N[C@@H]1C(=O)N(CCO)c2ncccc2-c2ccccc21 [crenigacestat] | 1.79
70 | Cc1cc(Nc2ncc(Cl)c(Nc3ccccc3S(=O)(=O)C(C)C)n2)c(OC(C)C)cc1C1CCNCC1 [ceritinib] | 2.17
71 | CS(=O)(=O)c1ccc(C(=O)Nc2ccc(Cl)c(-c3ccccn3)c2)c(Cl)c1 [vismodegib] | 2.24
72 | NC(=O)c1cccc2cn(-c3ccc([C@@H]4CCCNC4)cc3)nc12 [niraparib] | 2.42
